PubChem BioAssay (NCI)
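Growth conditions: 96-well plates. Treatment: test compound, 48 hours, 5 concentrations. Analysis: linear interpolation between bracketing concentrations; unreached endpoints set to highest concentration. Here, GI50 denotes the concentration required for 50% inhibition of growth. TGI denotes the concentration required for complete inhibition of growth.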

Tests used:
Assay in all cases: growth of human tumour cells (NCI), 48 h
[1] = tested on: MDA-MB-435
[2] = tested on: U251 CNS
[3] = tested on: MOLT-4 leukemia
[4] = tested on: OVCAR-5 ovarian
[5] = tested on: 786-0 renal
[6] = tested on: COLO 205 colon
[7] = tested on: NCI-H460 lung
[8] = tested on: LOX IMVI melanoma
[9] = tested on: HCT-116 colon
[10] = tested on: RPMI-8226 leukemia
[11] = tested on: UACC-62 melanoma
[12] = tested on: HOP-62 NSCLC
[13] = tested on: NCI-H226 lung
[14] = tested on: CCRF-CEM leukemia
[15] = tested on: PC-3 prostate
[16] = tested on: SK-MEL-28 melanoma
[17] = tested on: M14 melanoma
[18] = tested on: HCC-2998 colon
[19] = tested on: IGROV1 ovarian
[20] = tested on: NCI-H522 lung
[21] = tested on: UO-31 renal
[22] = tested on: K-562 leukemia
[23] = tested on: EKVX NSCLC
[24] = tested on: MCF7 breast
[25] = tested on: SF-539 CNS
[26] = tested on: SF-295 CNS
[27] = tested on: CAKI-1 renal
[28] = tested on: SW-620 colon
[29] = tested on: SK-OV-3 ovarian
[30] = tested on: OVCAR-8 ovarian
[31] = tested on: SNB-19 CNS
[32] = tested on: ACHN renal
[33] = tested on: HL-60(TB) leukemia
[34] = tested on: TK-10 renal
[35] = tested on: HT29 colon
[36] = tested on: UACC-257 melanoma
[37] = tested on: HS 578T breast
[38] = tested on: OVCAR-4 ovarian
[39] = tested on: HOP-92 NSCLC
[40] = tested on: T-47D breast
[41] = tested on: SK-MEL-5 melanoma
[42] = tested on: KM12 colon
[43] = tested on: SN12C renal
[44] = tested on: MALME-3M melanoma
[45] = tested on: SR leukemia
[46] = tested on: MDA-MB-231 breast
[47] = tested on: DU-145 prostate
[48] = tested on: NCI-H23 lung
[49] = tested on: SK-MEL-2 melanoma
[50] = tested on: OVCAR-3 ovarian
[51] = tested on: BT-549 breast
[52] = tested on: HCT-15 colon
[53] = tested on: RXF 393 renal
[54] = tested on: A549 NSCLC
[55] = tested on: SNB-75 CNS
[56] = tested on: SF-268 CNS
[57] = tested on: A498 renal
[58] = tested on: NCI/ADR-RES ovarian

## CCOC(=O)c1c(NCC(=O)Nc2cccc([N+](=O)[O-])c2)sc2c1CCCC2
[1]
  GI50: 328 nM
  TGI: 1090 nM
[2]
  GI50: 284 nM
  TGI: 979 nM
[3]
  GI50: 246 nM
  TGI: 4160 nM
[4]
  GI50: 270 nM
  TGI: 779 nM
[5]
  GI50: 271 nM
  TGI: 840 nM
[6]
  GI50: 274 nM
  TGI: 774 nM
[7]
  GI50: 265 nM
  TGI: 707 nM
[8]
  GI50: 195 nM
  TGI: 405 nM
[9]
  GI50: 263 nM
  TGI: 805 nM
[10]
  GI50: 310 nM
  TGI: 1060 nM
[11]
  GI50: 173 nM
  TGI: 380 nM
[12]
  GI50: 416 nM
  TGI: 1990 nM
[13]
  GI50: 194 nM
  TGI: 471 nM
[14]
  GI50: 253 nM
[15]
  GI50: 250 nM
  TGI: 726 nM
[16]
  GI50: 235 nM
  TGI: 596 nM
[17]
  GI50: 183 nM
  TGI: 361 nM
[18]
  GI50: 207 nM
  TGI: 499 nM
[19]
  GI50: 236 nM
  TGI: 738 nM
[20]
  GI50: 226 nM
  TGI: 739 nM
[21]
  GI50: 198 nM
  TGI: 583 nM
[22]
  GI50: 278 nM
[23]
  GI50: 718 nM
  TGI: 3640 nM
[24]
  GI50: 272 nM
  TGI: 974 nM
[25]
  GI50: 242 nM
  TGI: 644 nM
[26]
  GI50: 310 nM
  TGI: 1180 nM
[27]
  GI50: 251 nM
  TGI: 735 nM
[28]
  GI50: 315 nM
  TGI: 1210 nM
[29]
  GI50: 294 nM
  TGI: 856 nM
[30]
  GI50: 351 nM
  TGI: > 100000 nM
[31]
  GI50: 306 nM
  TGI: 1080 nM
[32]
  GI50: 281 nM
  TGI: 795 nM
[33]
  GI50: 280 nM
  TGI: 4200 nM
[34]
  GI50: 256 nM
  TGI: 782 nM
[35]
  GI50: 273 nM
  TGI: 1060 nM
[36]
  GI50: 401 nM
  TGI: 2130 nM
[37]
  GI50: 264 nM
  TGI: 773 nM
[38]
  GI50: 338 nM
  TGI: 3730 nM
[39]
  GI50: 209 nM
  TGI: 696 nM
[40]
  GI50: 728 nM
  TGI: 3120 nM
[41]
  GI50: 182 nM
  TGI: 354 nM
[42]
  GI50: 315 nM
  TGI: 966 nM
[43]
  GI50: 256 nM
  TGI: 793 nM
[44]
  GI50: 181 nM
  TGI: 407 nM
[45]
  GI50: 276 nM
[46]
  GI50: 280 nM
  TGI: 1010 nM
[47]
  GI50: 316 nM
  TGI: 1360 nM
[48]
  GI50: 217 nM
  TGI: 722 nM
[49]
  GI50: 436 nM
  TGI: 2290 nM
[50]
  GI50: 289 nM
  TGI: 770 nM
[51]
  GI50: 211 nM
  TGI: 605 nM
[52]
  GI50: 265 nM
  TGI: 1330 nM
[53]
  GI50: 182 nM
  TGI: 360 nM
[54]
  GI50: 301 nM
  TGI: 2680 nM
[55]
  GI50: 214 nM
  TGI: 1690 nM
[56]
  GI50: 354 nM
  TGI: 1690 nM
[57]
  GI50: 194 nM
  TGI: 392 nM
[58]
  GI50: 267 nM
  TGI: 762 nM
